Measurements reported in US9567371B2, “Short beta-defensin-derived peptides” (Yeda Research and Development Co. Ltd., priority 2009, dated 2017).
Peptide text beside a SMILES is read from it.

What was measured:
G2 cells = test: Homing assay of pretreated G2 cells in NOD/SCID mice; format: in vivo, mouse; settings: 10 μM pretreatment 3 hrs, i.v. into non-irradiated NOD/SCID mice, 16 hrs
Description: FIGS. 8A-8D. Effect of TL-1 and cyclic TL-1 on in vitro and in vivo cell migration. (A, C) Human CD3^+, G2, cord blood CD34^+ and peripheral blood mononuclear (PBMC) cells were preincubated with 1 and 10 μM TL-1 for 3 hrs in serum free medium, washed and allowed to migrate towards SDF-1. Migrated cells were collected and calculated by flow cytometry. Percentage of migrated cells is presented as compared to untreated (UT) control taken as 100%. (B) G2 cells were similarly preincubated with 10 μM TL-1 or cTL-1 for the indicated periods of time and percentage of migrated cells is depicted. (D) Homing assay. G2 cells were similarly preincubated with 10 μM TL-1 or cTL-1 for 3 hrs, washed and i.v. injected (10×10^6/mouse) to non-irradiated NOD/SCID mice. Percentage of G2 cells in the murine BM and spleens was determined by staining with anti-human CD45 Ab and compared with untreated (UT) cells. […]
G2 cells (10×10^6/mL) pretreated with the peptides for 3 hrs as described above, were injected i.v. into non-irradiated NOD/SCID mice, which were sacrificed 16 hrs later. Samples of BM cells flushed from both femur and tibia bones and spleen cell suspension were prepared, and the percentage of human cells was determined by staining with anti-human CD45-FITC mAb (ImmunoQuality Products, Groningen, The Netherlands) as described (Spiegel, A., et al., 2004).

C57BL/6 mice = test: Mobilization assay: hematopoietic progenitor cells (CFU from PB MNC); format: in vivo, mouse
Description: FIG. 3. Dose-response effect of TL-1 and AK-1 on mobilization of hematopoietic progenitor cells to peripheral blood. C57BL/6 mice were s.c. injected with 1, 5 or 10 mg/kg of TL-1 or AK-1. Control mice were injected with PBS. After 1-1.5 h, mice were sacrificed, peripheral blood mononuclear cells (PB MNC) were separated by Ficoll, seeded into the methylcellulose, and the number of colony-forming units (CFU) was estimated. Data shown are the number of CFU per 2×10^5 seeded PB MNC cells. Vertical bars represent standard deviation of duplicate experiments. *P<0.05 compared to control.
FIG. 5. TL-1 synergizes with G-CSF to mobilize hematopoietic progenitor cells to peripheral blood. C57BL/6 mice were s.c. injected with 5 mg/kg of AMD3100 (AMD), TL-1, AK-1, TL-1+AMD3100, or AK-1+AMD3100. Other mice were injected with G-CSF, alone or with TL-1 or AMD3100. Control mice were injected with PBS. After 1-1.5 h, mice were sacrificed, peripheral blood mononuclear cells (PB MNC) were separated by Ficoll, seeded into the methylcellulose, and the number of colony-forming units (CFU) was estimated. Data shown are the number of CFU per 2×10^5 seeded PB MNC cells. Vertical bars represent standard deviation of duplicate experiments. *P<0.05 compared to control.
C57BL/6 mice were injected s.c. with PBS (control), 5 mg/kg AMD3100, or one of the peptides TL-1, cyclic TL-1 and AK-1, at various doses. Another group of mice was s.c. injected with 5 mg/kg AMD3100 together with TL-1, or cyclic TL-1, or AK-1 (all peptides at 5 mg/kg), 1-1.5 hr before sacrifice. An additional group of mice was s.c. injected with-G-CSF at a dose of 5 μg/mouse once a day for 5 days. Mice were sacrificed 4 hrs post last G-CSF injection; 1-1.5 before sacrifice, mice were injected with TL-1, cyclic TL-1 or AK-1, all at 5 mg/kg. Peripheral blood (PB) was collected from mice by cardiac puncture into heparin containing tubes and the number of white blood cells (WBC) per 1 mL of blood was calculated. The tubes were centrifuged, plasma was collected and kept at −20° C. until tested. In order to evaluate the number of progenitor cells, PB mononuclear cells were isolated using Ficoll gradient centrifugation, and seeded (2×10^5 cells/plate) in methylcellulose with cytokines as described (Spiegel, A., et al., 2004, Goichberg, P., et al., 2006). Colonies, reflecting colony-forming units (CFU), were scored after 7 days.
In the same experiments, blood mononuclear cells were collected and tested for the presence of colony-forming cells reflecting the number of HPC.

U937 cells = test: Transwell migration towards SDF-1; format: cell-based, human
Description: Various cells (1×10^6/mL), untreated or pretreated with peptides for 3 hrs at 96-well flat bottom plates at 37° C. were washed, 2×10^5 cells/100 μL were added to the upper chambers of Costar 24-well transwell plates with 5 μm pore filters (Corning Inc., Corning, N.Y.) and allowed to migrate for 2-4 hrs at 37° C. (95% humidity, 5% CO2) spontaneously or towards 50 ng/mL SDF-1 (rhSDF-1, Peprotech, Rocky Hill, N.J.) in medium supplemented with 10% FCS. In the chemotaxis assay, untreated cells were added to the upper chambers and the peptides were added to the lower chambers in serum free medium. Migrated cells were collected from the lower chambers and counted using a flow cytometer. Data are presented as a percentage of migrated cells.
To address this issue, the cells were incubated with the peptides for 3 hrs, washed and then allowed to migrate towards SDF-1.

CD45 = CD45 membrane expression (flow cytometry); format: cell-based, human; settings: tested cells, 3 hrs preincubation
Description: (§1) Various cell types (1×10^6/mL) were pretreated with the peptides for 3 hrs as described above, washed and then stained in staining buffer (PBS supplemented with 0.5% FCS and 0.01% sodium azide) with mouse anti-human CXCR4-PE, CCR5-FITC (R&D Systems, Minneapolis, Minn.) or CD45-FITC (ImmunoQuality Products, Groningen, The Netherlands) mAbs for 30 min at 4° C. and analyzed by flow cytometry as described (Kalinkovich, A., et al., 2006). Appropriate IgG were used as the isotype controls.
(§2) Recently, it has been shown that HBD3 could induce internalization of CXCR4 but not of CCR5 in the CEM T cells expressing both CXCR4 and CCR5 (Feng, Z. et al., 2006) implying CXCR4 specificity in HBD3 action.

CCR5 = CCR5 membrane expression (flow cytometry); format: cell-based, human; settings: tested cells, 3 hrs preincubation
Description: FIGS. 10A-10C. TL-1 and cTL1 down-regulate CXCR4 expression on human cord blood CD34^+ and G2 cells. Human cord blood CD34^+ and G2 cells were incubated with 1 or 10 μM TL-1 or cyclic TL-1 for 3 hrs or left untreated (UT), washed, stained with CXCR4 and CCR5 Ab and analyzed by flow cytometry. Representative histograms from 3 separate experiments are shown. FIG. 10A—effect of TL-1 on CXCR4 expression. FIG. 10B—effect of cTL-1 on CXCR4 expression. FIG. 10C—effects of TL-1 and cTL-1 on CCR5 expression.
as §1, §2

## N=C(N)NCCC[C@@H]1NC(=O)CNC(=O)[C@H](CCCNC(=N)N)NC(=O)[C@H](CCCCN)NC(=O)[C@H](CCCCN)NC(=O)[C@H](CCCNC(=N)N)NC(=O)[C@H](CCCNC(=N)N)NC(=O)[C@H](CS)NC(=O)[C@H](CS)NC(=O)[C@H](CCCCN)NC1=O [cyclic TL-1, 1,10-cyclo[RGRKCCRRKK]] (cyclo(CCRRKKRGRK))
G2 cells
  homing of pretreated G2 cells to the BM: decrease the homing
  homing of pretreated G2 cells to the spleen: decreased G2 cell homing
C57BL/6 mice; 1 mg/kg s.c.
  HPC mobilization (colony-forming cells): did not induce mobilization of HPC
C57BL/6 mice; 5 mg/kg each
  HPC mobilization in combination with AMD3100: inhibited AMD3100-induced mobilization
C57BL/6 mice; 5 mg/kg s.c.
  HPC mobilization, peptide alone in the comparison/combination experiments: inhibitory effect
C57BL/6 mice; 5 mg/kg s.c., dose response experiments
  HPC mobilization (colony-forming cells): did not induce mobilization of HPC
C57BL/6 mice; 10 mg/kg s.c.
  HPC mobilization (colony-forming cells): inhibitory effect
U937 cells; 1 μM
  SDF-1-induced migration: ineffective
U937 cells; 10 μM
  inhibition of SDF-1-induced migration: 2 fold
CD45
  membrane expression of CD45: either unaffected or slightly increased
CCR5
  membrane expression of CCR5: either unaffected or slightly increased
